#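 These data come from cells grown in 96-well plates and exposed to compound for 48 hours at five concentrations. At the GI50, growth is halved.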 The source made the active and inactive calls. No stated cut-off is given here; in the data, active = GI50 up to about 1.1 µM and inactive = higher.
# Experiments:
# Assay in all cases: growth of human tumour cells (NCI), 48 h
# 786-0 = system: 786-0
# SNB-19 = system: SNB-19
# EKVX = system: EKVX
# ACHN = system: ACHN
# TK-10 = system: TK-10
# OVCAR-8 = system: OVCAR-8
# CCRF-CEM = system: CCRF-CEM
# HL-60 = system: HL-60
# Malme-3M = system: Malme-3M
# SN12C = system: SN12C
# SF-295 = system: SF-295
# HCT-15 = system: HCT-15
# COLO 205 = system: COLO 205
# MOLT-4 = system: MOLT-4
# OVCAR-4 = system: OVCAR-4
SMILES,GI50 (786-0),GI50 (SNB-19),GI50 (EKVX),GI50 (ACHN),GI50 (TK-10),GI50 (OVCAR-8),GI50 (CCRF-CEM),GI50 (HL-60),GI50 (Malme-3M),GI50 (SN12C),GI50 (SF-295),GI50 (HCT-15) [µM],GI50 (COLO 205),GI50 (MOLT-4),GI50 (OVCAR-4)
COc1ccc(N2C(=O)C(N3C(=O)C=CC3=O)C2C=O)cc1 (configuration not stated),> 100 µM (inactive),> 100 µM (inactive),> 100 µM (inactive),> 100 µM (inactive),> 100 µM (inactive),> 100 µM (inactive),> 100 µM (inactive),> 100 µM (inactive),> 100 µM (inactive),> 100 µM (inactive),> 100 µM (inactive),> 100,> 100 µM (inactive),–,–
NC(=O)N/N=C/C(=C/Nc1ccccc1)[N+](=O)[O-],> 100 µM (inactive),> 100 µM (inactive),> 100 µM (inactive),> 100 µM (inactive),> 100 µM (inactive),> 100 µM (inactive),> 100 µM (inactive),> 100 µM (inactive),–,> 100 µM (inactive),> 100 µM (inactive),> 100,> 100 µM (inactive),93.8 µM (inactive),> 100 µM (inactive)
CN(C)CCC(/C=C/c1ccccc1)=N\Nc1ccccc1,2.03 µM (inactive),3.88 µM (inactive),2.07 µM (inactive),0.37 µM (active),1.6 µM (inactive),10.7 µM (inactive),0.526 µM (active),0.564 µM (active),3.07 µM (inactive),2.74 µM (inactive),0.451 µM (active),0.336,1.96 µM (inactive),0.667 µM (active),4.32 µM (inactive)
O=C1c2ccccc2C(=O)N1CCn1ccc(NC(c2ccccc2)(c2ccccc2)c2ccccc2)nc1=O,32 µM (inactive),25.2 µM (inactive),49.1 µM (inactive),22.5 µM (inactive),26.9 µM (inactive),36.7 µM (inactive),20.1 µM (inactive),19 µM (inactive),20.3 µM (inactive),26.2 µM (inactive),15.1 µM (inactive),22.5,17.6 µM (inactive),17.5 µM (inactive),25.5 µM (inactive)
COc1ccc([C@@]2(O)c3c(ccc(O)c3OC)[C@H]2OC)c(OC)c1,41.8 µM (inactive),> 100 µM (inactive),> 100 µM (inactive),86.1 µM (inactive),27.1 µM (inactive),51.5 µM (inactive),36.6 µM (inactive),31.6 µM (inactive),> 100 µM (inactive),71.8 µM (inactive),29.2 µM (inactive),–,44.2 µM (inactive),34.7 µM (inactive),67.9 µM (inactive)
O=C(NC1C2CC3CC(C2)CC1C3)c1ccncn1 (configuration not stated),> 100 µM (inactive),> 100 µM (inactive),> 100 µM (inactive),> 100 µM (inactive),–,> 100 µM (inactive),> 100 µM (inactive),> 100 µM (inactive),> 100 µM (inactive),> 100 µM (inactive),> 100 µM (inactive),> 100,> 100 µM (inactive),–,> 100 µM (inactive)
ON1CCc2c([nH]c3ccccc23)C1c1ccc(Cl)cc1 (configuration not stated),32.1 µM (inactive),29 µM (inactive),35.8 µM (inactive),31 µM (inactive),43.9 µM (inactive),32.4 µM (inactive),18.2 µM (inactive),25.9 µM (inactive),29.4 µM (inactive),26.1 µM (inactive),27.7 µM (inactive),–,32.9 µM (inactive),21.4 µM (inactive),–
CC/C(C)=C1\CCC(CN2CCOCC2)C1=O (configuration not stated),10.1 µM (inactive),47.9 µM (inactive),18.7 µM (inactive),7.18 µM (inactive),14.5 µM (inactive),20.7 µM (inactive),7.91 µM (inactive),15.1 µM (inactive),17.7 µM (inactive),8.69 µM (inactive),> 100 µM (inactive),13.4,–,22.5 µM (inactive),17.6 µM (inactive)
COc1ccc(C23c4ccc(OC)cc4CC2(c2ccc([N+](=O)[O-])cc2)Cc2cc(OC)ccc23)cc1 (configuration not stated),> 100 µM (inactive),> 71.4 µM (inactive),> 15.2 µM (inactive),> 39.4 µM (inactive),> 92.5 µM (inactive),> 36.7 µM (inactive),> 40.9 µM (inactive),> 55 µM (inactive),> 38.2 µM (inactive),> 50.6 µM (inactive),–,> 93.5,> 36.2 µM (inactive),> 36.2 µM (inactive),> 25.1 µM (inactive)
CCN(CC)CC(=O)N1CCc2c([nH]c3ccccc23)C1c1cccnc1 (configuration not stated),> 100 µM (inactive),> 100 µM (inactive),> 100 µM (inactive),> 100 µM (inactive),> 100 µM (inactive),> 100 µM (inactive),> 100 µM (inactive),> 100 µM (inactive),–,> 100 µM (inactive),> 100 µM (inactive),> 100,–,> 100 µM (inactive),> 100 µM (inactive)
C[C@@H](CC(O)C1OC1(C)C)[C@@H]1CC[C@]2(C)C3=CCC4C(C)(C)C(O)CC[C@]4(C)C3CCC12C (some centres not stated),16 µM (inactive),37.6 µM (inactive),39.6 µM (inactive),14.8 µM (inactive),20.3 µM (inactive),26.5 µM (inactive),27.5 µM (inactive),4.14 µM (inactive),13 µM (inactive),42.2 µM (inactive),13.7 µM (inactive),33.1,21.3 µM (inactive),16 µM (inactive),20.8 µM (inactive)
O=C(N/N=C(\C1=Nc2ccc(Cl)cc2NC1O)C(O)/C=C/c1ccccc1)c1ccncc1 (configuration not stated),> 100 µM (inactive),> 100 µM (inactive),–,> 100 µM (inactive),> 100 µM (inactive),> 100 µM (inactive),> 100 µM (inactive),> 100 µM (inactive),> 100 µM (inactive),> 100 µM (inactive),> 100 µM (inactive),> 100,> 100 µM (inactive),> 100 µM (inactive),> 100 µM (inactive)
CC(=O)Oc1ccccc1 [ACETIC ACID PHENYL ESTER],> 100 µM (inactive),> 100 µM (inactive),> 100 µM (inactive),> 100 µM (inactive),–,> 100 µM (inactive),> 100 µM (inactive),> 100 µM (inactive),> 100 µM (inactive),> 100 µM (inactive),> 100 µM (inactive),> 100,–,> 100 µM (inactive),> 100 µM (inactive)
CC(=O)Oc1cc(OC(C)=O)c2cc3c(cc2c1OC(C)=O)C(=O)C1(CCCC1)C3=O,17.2 µM (inactive),–,20 µM (inactive),17.7 µM (inactive),17.2 µM (inactive),16.4 µM (inactive),–,20.8 µM (inactive),17.9 µM (inactive),17.7 µM (inactive),16.3 µM (inactive),17.8,17.4 µM (inactive),3.18 µM (inactive),18.6 µM (inactive)
O=C1CCC2(c3ccccc3)Nc3ncccc3N12 (configuration not stated),> 100 µM (inactive),–,> 100 µM (inactive),> 100 µM (inactive),> 100 µM (inactive),> 100 µM (inactive),> 100 µM (inactive),> 100 µM (inactive),> 100 µM (inactive),> 100 µM (inactive),> 100 µM (inactive),> 100,> 100 µM (inactive),> 100 µM (inactive),> 100 µM (inactive)
COC(=O)C1C2CC3C(OC(=O)C31)C2OC(=O)[C@](OC)(c1ccccc1)C(F)(F)F (some centres not stated),> 100 µM (inactive),> 100 µM (inactive),> 100 µM (inactive),> 100 µM (inactive),> 100 µM (inactive),> 100 µM (inactive),> 100 µM (inactive),> 100 µM (inactive),> 100 µM (inactive),> 100 µM (inactive),–,> 100,> 100 µM (inactive),> 100 µM (inactive),> 100 µM (inactive)
Cn1c2cccc3nnc4cccc(c4c32)n1C,> 100 µM (inactive),> 100 µM (inactive),> 100 µM (inactive),> 100 µM (inactive),–,> 100 µM (inactive),> 100 µM (inactive),> 100 µM (inactive),> 100 µM (inactive),> 100 µM (inactive),> 100 µM (inactive),> 100,> 100 µM (inactive),> 100 µM (inactive),> 100 µM (inactive)
Cc1cccc(C)c1NC(=O)C1=NC(=S)NC(c2ccccc2)C1c1nc2ccccc2s1 (configuration not stated),> 100 µM (inactive),> 100 µM (inactive),> 100 µM (inactive),> 100 µM (inactive),> 100 µM (inactive),> 100 µM (inactive),> 100 µM (inactive),> 100 µM (inactive),> 100 µM (inactive),> 100 µM (inactive),> 100 µM (inactive),–,> 100 µM (inactive),> 100 µM (inactive),> 100 µM (inactive)
COc1cc(C[S+]2CCCC2)c(SC)cc1C[S+]1CCCC1,> 100 µM (inactive),–,> 100 µM (inactive),> 100 µM (inactive),> 100 µM (inactive),> 100 µM (inactive),> 100 µM (inactive),> 100 µM (inactive),> 100 µM (inactive),> 100 µM (inactive),> 100 µM (inactive),> 100,> 100 µM (inactive),> 100 µM (inactive),> 100 µM (inactive)
N#CCc1cccc(CC#N)c1Br,> 100 µM (inactive),> 100 µM (inactive),> 100 µM (inactive),> 100 µM (inactive),–,> 100 µM (inactive),> 100 µM (inactive),> 100 µM (inactive),> 100 µM (inactive),> 100 µM (inactive),> 100 µM (inactive),> 100,> 100 µM (inactive),> 100 µM (inactive),> 100 µM (inactive)

# — ChEMBL document CHEMBL1201862, “PubChem BioAssay data set” (2004)
